Key:
KES23460 = target: T1, KES23460 (Pseudomonas sp. AAC, UniProt A0ABD3YRH9); test: KES23458-coupled NADH formation, A340; type: biochemical; conditions: NAD, pH […]
T1 construct: gene FG99_15390
T1 sequence (A0ABD3YRH9 1-498): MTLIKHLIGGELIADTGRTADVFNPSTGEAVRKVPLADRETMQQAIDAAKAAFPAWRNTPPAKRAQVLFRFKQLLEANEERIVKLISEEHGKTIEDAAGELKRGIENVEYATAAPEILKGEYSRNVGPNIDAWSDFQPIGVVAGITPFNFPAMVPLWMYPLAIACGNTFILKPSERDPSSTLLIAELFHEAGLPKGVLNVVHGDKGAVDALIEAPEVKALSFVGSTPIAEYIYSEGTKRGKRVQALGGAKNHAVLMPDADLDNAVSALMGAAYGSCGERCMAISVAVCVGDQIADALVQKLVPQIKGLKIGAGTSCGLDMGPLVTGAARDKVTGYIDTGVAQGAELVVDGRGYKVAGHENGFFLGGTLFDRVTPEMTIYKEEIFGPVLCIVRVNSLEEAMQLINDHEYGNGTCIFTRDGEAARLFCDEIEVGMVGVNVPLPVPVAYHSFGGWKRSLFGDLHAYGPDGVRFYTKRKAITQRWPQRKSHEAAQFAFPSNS

KES23458 = target: T2, KES23458 (Pseudomonas sp. AAC, UniProt Z9SKW1E3X5); test: X-ray crystallography; mass spectrometry; type: binding; conditions: crystal density atypical of PLP (PLP'), no aldimine seen; MS shows aldimine-bound unmodified PLP; covalent (Lys288 presumed); native structure 1.24 Å
T2 construct: full length minus N-terminal Met by mass spectrometry; homodimer; phospho-His31 and phospho-His360 observed; deconvoluted MS peak 50,399 (reduced with PLP)
T2 sequence (Z9SKW1E3X5 22-468): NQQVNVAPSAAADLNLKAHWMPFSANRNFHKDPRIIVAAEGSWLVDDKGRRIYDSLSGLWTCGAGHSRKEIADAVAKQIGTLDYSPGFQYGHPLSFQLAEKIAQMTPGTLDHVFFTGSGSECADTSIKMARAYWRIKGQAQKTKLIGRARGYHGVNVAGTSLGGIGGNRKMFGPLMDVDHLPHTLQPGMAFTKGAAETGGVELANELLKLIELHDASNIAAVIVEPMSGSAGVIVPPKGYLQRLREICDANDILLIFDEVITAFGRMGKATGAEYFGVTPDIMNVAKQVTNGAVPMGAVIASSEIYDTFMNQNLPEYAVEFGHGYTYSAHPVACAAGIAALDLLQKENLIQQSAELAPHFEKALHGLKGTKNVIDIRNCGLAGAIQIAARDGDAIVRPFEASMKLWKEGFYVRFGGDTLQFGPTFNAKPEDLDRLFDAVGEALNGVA

## CC(C)(COP(=O)(O)OP(=O)(O)OC[C@H]1O[C@@H](n2cnc3c(N)ncnc32)[C@H](O)[C@@H]1OP(=O)(O)O)[C@@H](O)C(=O)NCCC(=O)NCCS [CoA]
KES23460; co-substrate malonate semialdehyde formed in situ
  KES23458-coupled NADH formation, A340: In the presence of CoA, the transthioesterification step was observed to be significantly faster

## Cc1ncc(COP(=O)(O)O)c(C=O)c1O [PLP]
KES23458
  X-ray crystallography; mass spectrometry: with the mass gain corresponding to aldimine-bound unmodified PLP

## O=CCC(=O)O [malonic acid semialdehyde]
KES23460; formed in situ from […] beta-alanine and pyruvate by KES23458, with or without CoA
  KES23458-coupled NADH formation, A340: significant activity with only one of the substrates tested, malonic acid semialdehyde

From paper PMC4907197 (Applied and Environmental Microbiology, 2016)
